Measurements: US20260234107A1, “TRYPTAMINES AND METHODS OF TREATING MOOD DISORDERS” (priority 2022, published 2026)

Key:
[1] = Stability in mouse brain homogenate; assay type: in vitro ADME, male CD-1 mice; settings: mouse brain homogenate, 1 μM, 37° C.; for half-life at 1 µM: male, CD-1
[2] = Plasma pharmacokinetics in mice after subcutaneous administration; assay type: in vivo, male C57BL/6 mice; settings: plasma, male C57BL/6 mice, SC 10 mg/kg
Excerpt: Animals. […] Four mice were housed in each cage. […] All animals were provided laboratory rodent diet. […] Animals were randomly assigned to treatment groups.

[3] = Stability in rat brain homogenate; assay type: in vitro ADME, male Sprague Dawley rats; settings: rat brain homogenate, 1 μM, 37° C.; for half-life at 1 µM: male, Sprague Dawley
[4] = target: 5-HT2A (Homo sapiens, UniProt P28223); experiment: FLIPR Ca2+ flux agonist assay at 5-HT2A; assay type: cell-based; design: host or cells: HEK293; settings: for 5-HT2A % Act @ Max Dose: Ca2+ flux, HEK293, max dose
5-HT2A, sequence (P28223 whole entry): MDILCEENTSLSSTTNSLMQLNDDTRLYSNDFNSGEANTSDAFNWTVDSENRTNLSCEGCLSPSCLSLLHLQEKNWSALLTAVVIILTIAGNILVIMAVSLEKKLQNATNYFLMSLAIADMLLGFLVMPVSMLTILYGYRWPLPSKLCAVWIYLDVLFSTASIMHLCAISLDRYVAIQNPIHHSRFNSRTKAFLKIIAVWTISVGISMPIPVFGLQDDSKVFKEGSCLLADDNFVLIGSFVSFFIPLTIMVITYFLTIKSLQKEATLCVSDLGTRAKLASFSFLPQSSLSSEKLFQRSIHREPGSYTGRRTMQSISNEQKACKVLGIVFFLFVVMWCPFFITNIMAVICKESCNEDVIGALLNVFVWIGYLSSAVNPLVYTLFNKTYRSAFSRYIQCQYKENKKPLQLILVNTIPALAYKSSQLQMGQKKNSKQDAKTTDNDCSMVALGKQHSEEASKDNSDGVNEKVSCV

Compound	t1/2 [1]	% Compound Remaining (after 120 min) [1]	AUC(0-t) ([2]; mouse)	Cmax ([2]; mouse)	Tmax [2]	t1/2 [2]	t1/2 [3]	% Compound Remaining (after 120 min) [3]	EC50 [4]	5-HT2A % Act @ Max Dose [4]	half-life at 1 µM [1]	half-life at 1 µM [3]
CN(C)CCc1c[nH]c2ccc(F)cc12 [Compound 5-F-DMT, reference compound]	3.1 min	0.0%	247 ng·h/mL	363 ng/mL	15 min	16.2 min	2.7 min	0.0%	6.94 nM	94.7%		
CCNCCc1c[nH]c2ccc(F)c(O)c12 [Compound 28, 3-(2-(ethylamino)ethyl)-5-fluoro-1H-indol-4-ol]		1.9%						0.4%	10.5 nM	92.60%	22.1 min	15.4 min
CC(C)NCCc1c[nH]c2ccc(F)c(O)c12 [Compound 35, 5-fluoro-3-(2-(isopropylamino)ethyl)-1H-indol-4-ol]		40%						16.4%	45.7 nM	94.57%	90.5 min	45.6 min
